# According to ChEMBL document CHEMBL1152000, “Anti-allergy agents. 3. Angular tricyclic ether derivatives of the 1,8-naphthyridin-2(1H)-one ring system” (1994):
# What was measured:
# Format in all cases: functional
# Cavia porcellus [1] = species on record: Cavia porcellus; experiment: In vitro percent inhibition of LTD4 release from sensitized guinea pig lung fragment at dose of 3 uM
# Cavia porcellus [2] = experiment: In vivo percent inhibition of ovalbumin induced bronchospasm in sensitized guinea pig after peroral administration at dose of 2 mg/kg for single dose; settings: route oral
# Cavia porcellus [3] = species on record: Cavia porcellus; experiment: In vitro percent inhibition of LTD4 release from sensitized guinea pig lung fragment at dose of 1 uM
# Cavia porcellus [4] = experiment: In vivo percent inhibition of ovalbumin induced bronchospasm in sensitized guinea pig after peroral administration at dose of 1 mg/kg for single dose; settings: route oral
# Cavia porcellus [5] = experiment: In vivo percent inhibition of ovalbumin induced bronchospasm in sensitized guinea pig after peroral administration at dose of 0.25 mg/kg for single dose; settings: route oral
# Cavia porcellus [6] = experiment: In vivo percent inhibition of ovalbumin induced bronchospasm in sensitized guinea pig after peroral administration at dose of 0.5 mg/kg for multiple dose; settings: route oral
# Cavia porcellus [7] = experiment: In vivo percent inhibition of ovalbumin induced bronchospasm in sensitized guinea pig after peroral administration at dose of 0.5 mg/kg for single dose; settings: route oral
# Cavia porcellus [8] = species on record: Cavia porcellus; experiment: In vitro percent inhibition of LTD4 release from sensitized guinea pig lung fragment at dose of 10 uM
# Cavia porcellus [9] = experiment: In vivo percent inhibition of ovalbumin induced bronchospasm in sensitized guinea pig after peroral administration at dose of 12 mg/kg for single dose; settings: route oral
# Cavia porcellus [10] = experiment: In vivo percent inhibition of ovalbumin induced bronchospasm in sensitized guinea pig after peroral administration at dose of 25 mg/kg for single dose; settings: route oral
# Cavia porcellus [11] = experiment: In vivo percent inhibition of ovalbumin induced bronchospasm in sensitized guinea pig after peroral administration at dose of 3 mg/kg for single dose; settings: route oral
# Cavia porcellus [12] = experiment: In vivo percent inhibition of ovalbumin induced bronchospasm in sensitized guinea pig after peroral administration at dose of 6.25 mg/kg for multiple dose; settings: route oral
# Cavia porcellus [13] = experiment: In vivo percent inhibition of ovalbumin induced bronchospasm in sensitized guinea pig after peroral administration at dose of 12.5 mg/kg for multiple dose; settings: route oral
# Cavia porcellus [14] = experiment: In vivo percent inhibition of ovalbumin induced bronchospasm in sensitized guinea pig after peroral administration at dose of 10 mg/kg for single dose; settings: route oral
# Cavia porcellus [15] = experiment: In vivo percent inhibition of ovalbumin induced bronchospasm in sensitized guinea pig after peroral administration at dose of 2 mg/kg for multiple dose; settings: route oral
# Cavia porcellus [16] = experiment: In vivo percent inhibition of ovalbumin induced bronchospasm in sensitized guinea pig after peroral administration at dose of 1 mg/kg for multiple dose; settings: route oral
# Cavia porcellus [17] = experiment: In vivo percent inhibition of ovalbumin induced bronchospasm in sensitized guinea pig after peroral administration at dose of 3.13 mg/kg for multiple dose; settings: route oral
# Cavia porcellus [18] = experiment: In vivo percent inhibition of ovalbumin induced bronchospasm in sensitized guinea pig after peroral administration at dose of 5 mg/kg for single dose; settings: route oral
smiles,measurement,setting,value
COc1ccc(-n2c(=O)c3c(c4cccnc42)OCC3)cc1,inhibition at 3 µM,Cavia porcellus [1],17%
CC1Cc2c(c3cccnc3n(-c3cccc(Cl)c3)c2=O)O1 (stereo unspecified),inhibition in vivo at 2 mg/kg,Cavia porcellus [2],38%
same,inhibition at 1 µM,Cavia porcellus [3],64%
O=c1c2c(c3cccnc3n1-c1cccc(Cl)c1)OCCCC2,inhibition in vivo at 1 mg/kg,Cavia porcellus [4],74%
same,inhibition in vivo at 2 mg/kg,Cavia porcellus [2],85%
same,inhibition at 3 µM,Cavia porcellus [1],62%
same,inhibition in vivo at 0.25 mg/kg,Cavia porcellus [5],27%
same,inhibition in vivo at 0.5 mg/kg,Cavia porcellus [6],50%
same,inhibition in vivo at 0.5 mg/kg,Cavia porcellus [7],62%
same,inhibition at 1 µM,Cavia porcellus [3],100%
Cc1ccc(-n2c(=O)c3c(c4cccnc42)OCC3)cc1,inhibition at 10 µM,Cavia porcellus [8],59%
same,inhibition at 3 µM,Cavia porcellus [1],28%
O=c1c2c(c3cccnc3n1-c1ccccc1)OCC2,inhibition in vivo at 12 mg/kg,Cavia porcellus [9],86%
same,inhibition in vivo at 25 mg/kg,Cavia porcellus [10],79%
same,inhibition in vivo at 3 mg/kg,Cavia porcellus [11],42%
same,inhibition in vivo at 6.25 mg/kg,Cavia porcellus [12],65%
same,inhibition at 10 µM,Cavia porcellus [8],72%
same,inhibition at 3 µM,Cavia porcellus [1],54%
same,inhibition in vivo at 12.5 mg/kg,Cavia porcellus [13],90%
COc1ccc(-n2c(=O)c3c(c4cccnc42)OCCC3)cc1,inhibition at 3 µM,Cavia porcellus [1],28%
O=c1c2c(c3cccnc3n1-c1ccc(Cl)cc1)OCC2,inhibition at 3 µM,Cavia porcellus [1],33%
O=c1c2c(c3cccnc3n1-c1ccc(Cl)cc1)OCCC2,inhibition at 3 µM,Cavia porcellus [1],33%
CC1Cc2c(c3cccnc3n(-c3ccccc3)c2=O)O1 (stereo unspecified),inhibition at 10 µM,Cavia porcellus [8],60%
Cc1ccc(-n2c(=O)c3c(c4cccnc42)OCCC3)cc1,inhibition at 3 µM,Cavia porcellus [1],27%
O=c1c2c(c3cccnc3n1-c1ccccc1)OCCCC2,inhibition in vivo at 2 mg/kg,Cavia porcellus [2],71%
same,inhibition at 3 µM,Cavia porcellus [1],75%
O=c1c2c(c3cccnc3n1-c1cccc(Cl)c1)OCC2,inhibition in vivo at 10 mg/kg,Cavia porcellus [14],93%
same,inhibition in vivo at 2 mg/kg,Cavia porcellus [15],62%
same,inhibition in vivo at 2 mg/kg,Cavia porcellus [2],87%
same,inhibition at 3 µM,Cavia porcellus [1],71%
same,inhibition in vivo at 1 mg/kg,Cavia porcellus [16],21%
O=c1c2c(c3cccnc3n1-c1ccc(Cl)c(Cl)c1)OCCC2,inhibition at 3 µM,Cavia porcellus [1],48%
O=c1c2c(c3cccnc3n1-c1ccccc1)OCCC2,inhibition in vivo at 25 mg/kg,Cavia porcellus [10],62%
same,inhibition in vivo at 3.13 mg/kg,Cavia porcellus [17],20%
same,inhibition in vivo at 6.25 mg/kg,Cavia porcellus [12],51%
same,inhibition at 10 µM,Cavia porcellus [8],62%
same,inhibition at 3 µM,Cavia porcellus [1],26%
same,inhibition in vivo at 12.5 mg/kg,Cavia porcellus [13],43%
O=c1c2c(c3cccnc3n1-c1ccc(Cl)c(Cl)c1)OCC2,inhibition in vivo at 5 mg/kg,Cavia porcellus [18],0%
same,inhibition at 10 µM,Cavia porcellus [8],63%
same,inhibition at 3 µM,Cavia porcellus [1],62%
